Experimental data from patent US20120184514A1, “VITAMIN D COMPOUNDS AND METHODS FOR PREPARING SAME” (Vitamin Derivatives Inc., priority 2009, published 2012).

Experiment: Thermogravimetric analysis of a 1α-hydroxy-vitamin D3 sample
Type: physicochemical
Settings: heated under nitrogen at 10 °C/min
Experimental: Thermogravimetric analysis of a 1α-hydroxy-vitamin D3 sample was performed using a TA Instruments 2950 thermogravimetric analyzer (available from TA Instruments of New Castle, Del.). The sample was placed in an aluminum sample pan and inserted into the thermogravimetric furnace. The furnace was heated under nitrogen at a rate of 10 ° C./min, from room temperature to a final temperature of 350° C. Nickel and Alumel™ (available from Hoskins Manufacturing Company, Novi, Mich.) were used as calibration standards. […] (See FIG. 6).

weight loss (thermogravimetric thermogram) (from 25° C. to 150° C.): 0.09%
decomposition temperature (thermogravimetric thermogram) (room temperature to 350° C.): > 200 °C
Structure (SMILES): C=C1/C(=C\C=C2/CCC[C@]3(C)[C@@H]([C@H](C)CCCC(C)C)CC[C@@H]23)C[C@@H](O)C[C@@H]1O [1α-hydroxy-vitamin D3, 1α, 3β,5Z,7E-9,10-secocholesta-5,7,10(19)-triene-1,3-diol]
